Experimental data: article PMC9089363, “Nonpolymeric Citramide-Based Kinetic Hydrate Inhibitors: Good Performance with Just Six Alkylamide Groups” (ACS Omega, 2022)
Read-outs that look alike come from different tables or passages of the source.

Tests used:
[1] = Slow constant cooling (SCC) KHI performance test in high-pressure steel rocking cells; conditions: SNG 76 bar
Procedure: 2.5 Kinetic Hydrate Inhibitor (KHI) Performance Tests in High-Pressure Rocking Cells
A rig with five high-pressure steel rocking cells was used for carrying out the KHI performance ranking of the new molecules. Each cell has a volume of 40 mL and a steel ball for agitation. The rig was supplied by PSL Systemtechnik GmbH, Germany, but the cells were constructed by Swafas, Norway (Figure 6). As in most of our KHI studies, we used a synthetic natural gas (SNG) mixture in order to compare results with a host of previous KHI studies. The SNG gives an sII hydrate as the thermodynamically stable phase (Table 1). Also, for comparative purposes we used our standard slow constant cooling (SCC) test method.[27] The pressure was approximately 76 bar at the start of each SCC experiment. At this pressure, an average equilibrium temperature (Teq) of 20.2 °C ± 0.05 °C was obtained from five repeat tests by laboratory slow dissociation experiments in the same rocking cells.[20] This agrees very well with a Teq value of 20.5 °C calculated using Calsep’s PVTSim software.
The SCC test procedure was carried out as follows: • 1. First, 20.0 mL of aqueous test solution was added to each steel cell, i.e., half the cell volume. • 2. Air was removed from the cells by alternate vacuum and filling with 1–5 bar SNG gas. • 3. The cells were filled with a 76 bar SNG mixture at room temperature, 20.5 °C. • 4. The cells were cooled from 20.5 to 2 °C at a rate of 1 °C/h while rocking. • 5. Temperature and pressure data for each cell were collected from the sensors and recorded throughout the whole cooling procedure.
Figure 8 illustrates how this is done for one cell. The small pressure drop at the very start of the graph is due to some SNG mixture dissolving in the aqueous phase. After this, the pressure drop is linear until hydrate formation is first detected at a To of 8.4 °C, where the pressure line deviates. Nucleation may have occurred somewhat earlier but is not detectable. Ta is the first temperature at which we observe the maximum rate of gas hydrate formation for the experiment.
At 8.1 °C (Ta), the first fastest pressure drop rate occurs. In this case, the rate of hydrate growth is fast shortly after To. […] The degrees of scattering in To values (≤20%) and Ta values (≤15%) are due to the stochastic nature of gas hydrate formation and are as expected from previous studies.[28] The scattering still allows for a rough ranking of the performance of the KHI samples as long as sufficient tests are carried out for a statistically significant difference using a t-test. Depending on the variation in average To between samples, 5–10 tests suffices in most cases to get a significant difference at the 95% confidence level (p < 0.05).[29]
At least 5 (and up to 10) standard constant cooling tests were employed to get each average To and average Ta value, where To denotes the temperature at which the first macroscopic detectable gas hydrate is formed and Ta denotes the rapid hydrate formation temperature in a solution. The KHI performance of each citramide derivative was compared mostly based on the To values as complete avoidance of gas hydrate formation is the preferred goal for field operations. Thus, a lower To value of a solution corresponds to a better KHI performance. […] However, caution in using this interpretation must be taken, since a low To value will mean a high driving force, which can cause more rapid macroscopic hydrate formation than a higher To value.

[2] = Cloud point (TCl) determination; assay type: physicochemical; conditions: 2500 ppm aqueous solution, heated ca. 5 °C/min up to 95 °C
Procedure: A 2500 ppm aqueous solution of each citramide derivative was heated slowly (ca. 5 °C/min), and the first sign of clouding of the solution at a certain temperature was denoted as the cloud point. Any solution that was already opaque at room temperature was first kept in a cooling room at 0–5 °C overnight before heating. Each measurement was repeated at least three times to check the reproducibility of the cloud point.

[3] = Solubility in water (observation); assay type: physicochemical
[4] = 2500 ppm aqueous solution, cooling 20.5 to 2 °C at 1 °C/h, average of 5-10 tests
[5] = 1000 ppm aqueous solution, SCC 1 °C/h
[6] = 2500 ppm + 1 mL of n-decane each cell + 5000 ppm nBGE, SCC 1 °C/h
[7] = 2500 ppm + 1 mL of n-decane each cell, SCC 1 °C/h
[8] = 2500 ppm + 3 mL of n-decane each cell + 5000 ppm nBGE, SCC 1 °C/h
[9] = 2500 ppm aqueous solution, cooling 20.5 to 2 °C at 1 °C/h, average of 5-10 tests, lower = better KHI

Row | cloud p.t Tcl [2] [°C] | Compound | av. Ta (gas hydrate rapid formation temperature) [1, 4] [°C] | av. To (gas hydrate onset temperature) [1, 9] [°C] | further results
1 | 35 | CC(C)CNC(=O)CC(CC(=O)NCC(C)C)(OC(=O)COCC(=O)OC(CC(=O)NCC(C)C)(CC(=O)NCC(C)C)C(=O)NCC(C)C)C(=O)NCC(C)C [oxydiacetyl-TiBuCAm, 2,2′-oxydiacetic acid bis(triisobutylcitric acid) amide] | 8.1 | 8.4 | av. Ta (gas hydrate rapid formation temperature) [1, 5]: 9.2 °C; av. To (gas hydrate onset temperature) [1, 5]: 9.3 °C; av. Ta (gas hydrate rapid formation temperature) [1, 6]: 7.9 °C; av. To (gas hydrate onset temperature) [1, 6]: 8.1 °C; av. Ta (gas hydrate rapid formation temperature) [1, 7]: 7.2 °C; av. To (gas hydrate onset temperature) [1, 7]: 7.4 °C; av. Ta (gas hydrate rapid formation temperature) [1, 8]: 6.0 °C; av. To (gas hydrate onset temperature) [1, 8]: 6.2 °C
2 | >95 | CCCNC(=O)CC(CC(=O)NCCC)(OC(=O)COCC(=O)OC(CC(=O)NCCC)(CC(=O)NCCC)C(=O)NCCC)C(=O)NCCC [oxydiacetyl-TnPrCAm, 2,2′-Oxydiacetic acid bis(tripropylcitric acid) amide] | 12.3 | 12.8 | 
3 | >95 | CCCNC(=O)CC(CC(=O)NCCC)(OC(=O)CC(=O)OC(CC(=O)NCCC)(CC(=O)NCCC)C(=O)NCCC)C(=O)NCCC [malonyl-TnPrCAm, 1,3-Malonic acid bis(tripropylcitric acid) amide] | 13.5 | 16.3 | 

The remaining lines, values behind:

Row | Compound | cloud p.t Tcl [2] [°C] | av. Ta (gas hydrate rapid formation temperature) [1, 4] [°C] | av. To (gas hydrate onset temperature) [1, 9] [°C] | further results
4 | CC(C)CNC(=O)CC(CC(=O)NCC(C)C)(OC(=O)CC(=O)OC(CC(=O)NCC(C)C)(CC(=O)NCC(C)C)C(=O)NCC(C)C)C(=O)NCC(C)C [malonyl-TiBuCAm, 1,3-Malonic acid bis(triisobutylcitric acid) amide] | >95 | 12.7 |  | 
5 | CC(C)CNC(=O)CC(O)(CC(=O)NCC(C)C)C(=O)NCC(C)C [TiBuCAm, 2-Hydroxy-N^1,N^2,N^3-triisobutylpropane-1,2,3-tricarboxamide] | >95 | 13.5 |  | 
6 | CCCCCNC(=O)CC(O)(CC(=O)NCCCCC)C(=O)NCCCCC [TnPeCAm, 2-Hydroxy-N^1,N^2,N^3-tripentylpropane-1,2,3-tricarboxamide] |  |  |  | solubility in water [3]: not soluble; solubility in water ([3]; listed as Tri-n-pentylcitramide): negligible solubility in water; solubility in water ([3]; listed as tri-n-pentylcitramide): not water soluble
7 | CCCNC(=O)CC(O)(CC(=O)NCCC)C(=O)NCCC [TnPrCAm, 2-Hydroxy-N^1,N^2,N^3-tripropylpropane-1,2,3-tricarboxamide] | >95 | 12.3 | 16.3 | 
